2-AG accumulation, % of vehicle control, Kd and IC50 data for 25 compounds are collected here from patent publication US8362000B2, “Azetidinyl diamides as monoacylglycerol lipase inhibitors” (Janssen Pharmaceutica NV, priority 2009, dated 2013).

The structures appear in SMILES notation. Residue numbers refer to the chain shown, from its start. Like-named read-outs stand apart in the source and are kept apart here.

One test addresses T1, MGL (Rattus norvegicus, UniProt Q8R431).
T1 construct: one g rat brain was homogenized using a Polytron homogenizer; from tissue; host or cells: rat brain homogenate
T1 sequence (Q8R431 1-303): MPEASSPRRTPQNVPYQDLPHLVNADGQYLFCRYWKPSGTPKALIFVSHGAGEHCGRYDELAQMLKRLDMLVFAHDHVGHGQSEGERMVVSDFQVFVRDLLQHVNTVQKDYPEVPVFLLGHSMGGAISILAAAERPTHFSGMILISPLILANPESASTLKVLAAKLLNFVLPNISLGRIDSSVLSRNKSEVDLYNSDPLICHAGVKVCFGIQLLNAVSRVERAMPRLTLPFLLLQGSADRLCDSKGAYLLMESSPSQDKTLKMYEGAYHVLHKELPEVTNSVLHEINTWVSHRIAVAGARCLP
Briefly: 2-AG accumulation assay in rat brain homogenate. Format: biochemical. To be noted: rat brain homogenate, 2-AG accumulation as percent of vehicle; for 2-AG accumulation, % of vehicle control at 1 µM: compound 1 μM, read-out: Rat Brain 2AG % VehCntrl (%) @ 1 μM.

Another test addresses T2, mutant MGL (Homo sapiens, UniProt Q99685, L169S/L176S).
T2 sequence (Q99685 1-303 L169S/L176S): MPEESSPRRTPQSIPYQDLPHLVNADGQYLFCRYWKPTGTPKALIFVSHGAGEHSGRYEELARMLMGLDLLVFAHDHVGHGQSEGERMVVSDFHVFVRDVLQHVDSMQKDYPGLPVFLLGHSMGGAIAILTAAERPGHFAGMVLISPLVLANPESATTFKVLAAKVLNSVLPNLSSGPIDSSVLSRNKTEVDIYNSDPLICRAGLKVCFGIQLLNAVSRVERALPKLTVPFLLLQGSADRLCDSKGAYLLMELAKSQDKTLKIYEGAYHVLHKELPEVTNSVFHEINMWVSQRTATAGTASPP
In words: MGL ThermoFluor assay - mutant. The class given is binding. In general terms: Differential scanning fluorimetry follows unfolding on heating by fluorescence.

Test [1] has as its target T3, purified wild type MGL (wt-MGLL 6H-11-313) (Homo sapiens, UniProt Q99685).
T3 sequence (Q99685 1-303): T2 sequence (Q99685 1-303 L169S/L176S) with S169L, S176L

The mark [2] stands for this setting: ThermoFluor concentration-response, read-out: MGL mutant ThermoFluor Kd.
Setting [3] is: ThermoFluor, compound concentration measured by qNMR, read-out: MGL mutant ThermoFluor qKd (using qNMR conc.).
The mark [4] stands for this setting: ThermoFluor thermal stability binding assay, read-out: MGL mutant ThermoFluor Kd.
The mark [5] stands for this setting: ThermoFluor, compound concentration measured by qNMR, read-out: MGL mutant ThermoFluor qKd (μM) (using qNMR conc.).

As usually defined, the IC50 is the midpoint of a concentration-inhibition curve. A high value points to a need for much substance. Turning to `O=C(c1ccc(-c2ccccc2)cc1)N1CC(N2CCN(C(=O)c3cccs3)CC2)C1` [Cpd 13, 1-[1-(Biphenyl-4-ylcarbonyl)azetidin-3-yl]-4-(thiophen-2-ylcarbonyl)piperazine], the 2-AG accumulation, % of vehicle control at 10 µM at MGL (compound 10 μM, read-out: Rat Brain 2AG % VehCntrl (%) @ 10 μM) turned out to be 730%. At mutant MGL (setting [2]), the Kd was 0.003 µM. In test [1], half-maximal inhibition (IC50) was put at 19.2 nM.
For `COc1ccc(C(=O)N2CC(N3CCN(C(=O)c4nccs4)CC3)C2)cc1-c1ccccc1` [Cpd 1168], the 2-AG accumulation, % of vehicle control at 1 µM on MGL stood at 780%. For the same compound, the Kd on mutant MGL (setting [2]) is 0.067 µM. Further, the IC50 in test [1] is 53 nM.
On to `Cc1c(C(=O)N2CC(N3CCN(C(=O)c4nccs4)CC3)C2)[nH]c2ccc(Br)cc12` [Cpd 682], for which the 2-AG accumulation, % of vehicle control at 1 µM at MGL stood at 390%. Also, on mutant MGL (setting [3]), the Kd is 0.014 µM. The compound also displayed a 50% inhibitory concentration (IC50) in test [1] of 30 nM.
The matching figures for `COc1cc(-n2ccc3cc(C(=O)N4CC(N5CCN(C(=O)c6nccs6)CC5)C4)ccc32)ccn1` [Cpd 1107, 1-(2-Methoxypyridin-4-yl)-5-({3-[4-(1,3-thiazol-2-ylcarbonyl)piperazin-1-yl]azetidin-1-yl}carbonyl)-1H-indole]: 838%, 0.003 µM and 14 nM.
Consider `O=C(c1ccc(-c2nc(-c3ccccc3)c(-c3ccccc3)[nH]2)cc1)N1CC(N2CCN(C(=O)c3nccs3)CC2)C1` [Cpd 1179], for which the 2-AG accumulation, % of vehicle control at 1 µM on MGL was 996%. Also, at mutant MGL (setting [2]), the Kd worked out at 0.005 µM. For the same compound, in test [1], it took 73 nM to reach half-maximal inhibition (IC50).
In the case of `Cc1c(C(=O)N2CC(N3CCN(C(=O)c4ccccc4)CC3)C2)sc2ccc(-c3ccccc3)cc12` [Cpd 570, 1-{1-[(3-Methyl-5-phenyl-1-benzothiophen-2-yl)carbonyl]azetidin-3-yl}-4-(phenylcarbonyl)piperazine], the 2-AG accumulation, % of vehicle control at 1 µM at MGL came out at 210%. Besides, at mutant MGL (setting [2]), the Kd came to 0.03 µM. Moreover, the half-inhibitory concentration (IC50) in test [1] stood at 22 nM.
For the compound `O=C(c1ccc2c(ccn2-c2ccc(C(F)(F)F)cc2)c1)N1CCN(C2CN(C(=O)c3ccc[nH]3)C2)CC1` [Cpd 1120, 5-({4-[1-(1H-Pyrrol-2-ylcarbonyl)azetidin-3-yl]piperazin-1-yl}carbonyl)-1-[4-(trifluoromethyl)phenyl]-1H-indole], the 2-AG accumulation, % of vehicle control at 1 µM at MGL is 867%. Also, at mutant MGL (setting [3]), the Kd was 0.02 µM. In test [1], the half-maximal inhibitory concentration (IC50) was 18 nM.
With `COc1ccc(C(=O)N2CC(N3CCN(C(=O)c4cscn4)CC3)C2)cc1-c1ccccc1` [Cpd 1265], the 2-AG accumulation, % of vehicle control at 1 µM at MGL was 192%. Further, the Kd on mutant MGL (setting [2]) was 0.66 µM. In test [1], this compound returned a 50% inhibitory concentration (IC50) of 1050 nM.
For `COc1ccc(-n2ccc3cc(C(=O)N4CC(N5CCN(C(=O)c6ccc[nH]6)CC5)C4)ccc32)cn1` [Cpd 1176, 1-(6-Methoxypyridin-3-yl)-5-({3-[4-(1H-pyrrol-2-ylcarbonyl)piperazin-1-yl]azetidin-1-yl}carbonyl)-1H-indole], the 2-AG accumulation, % of vehicle control at 1 µM on MGL was determined as 378%. For the same compound, at mutant MGL (setting [3]), the Kd came out at 0.161 µM. The IC50 in test [1] is 70 nM.
As for `O=C(c1nccs1)N1CCN(C2CN(C(=O)c3sc4cc(Cl)ccc4c3C(F)(F)F)C2)CC1` [Cpd 664], on MGL, the 2-AG accumulation, % of vehicle control at 1 µM stood at 498%. Besides, the Kd on mutant MGL (setting [2]) was found to be 0.006 µM. In addition, the midpoint of inhibition in test [1], the IC50, lay at 11 nM.
Regarding `O=C(c1ccccc1)N1CCN(C2CN(C(=O)c3ccc(OCc4ccc(Cl)s4)cc3)C2)CC1` [Cpd 972], the 2-AG accumulation, % of vehicle control at 1 µM at MGL was 683%. For the same compound, the Kd at mutant MGL (setting [4]) came out at 0.08 µM. Moreover, the half-maximal inhibitory concentration (IC50) in test [1] turned out to be 23 nM.
As to `O=C(c1ccc(-c2ccccc2)cc1)N1CCN(C2CN(C(=O)c3ccns3)C2)CC1` [Cpd 1235, 1-(Biphenyl-4-ylcarbonyl)-4-[1-(isothiazol-5-ylcarbonyl)azetidin-3-yl]piperazine], the 2-AG accumulation, % of vehicle control at 1 µM on MGL was 100%. The Kd on mutant MGL (setting [2]) stood at 0.124 µM. In test [1], this compound came in with an IC50 of 360 nM.
`O=C(c1ccc2c(c1)CCN(c1ccccn1)C2)N1CC(N2CCN(C(=O)c3nccs3)CC2)C1` [Cpd 661]: the 2-AG accumulation, % of vehicle control at 1 µM at MGL amounted to 764%. The Kd at mutant MGL (setting [4]) was 0.047 µM. The compound also yielded an IC50 in test [1] of 10 nM.
On to `O=C(c1ccc2c(c1)CCN(C(=O)c1cccs1)C2)N1CC(N2CCN(C(=O)c3nccs3)CC2)C1` [Cpd 665], for which, at MGL, the 2-AG accumulation, % of vehicle control at 1 µM amounted to 507%. For the same compound, the Kd on mutant MGL (setting [4]) turned out to be 0.058 µM. The compound also yielded a half-maximal inhibitory concentration (IC50) in test [1] of 13 nM.
With `O=C(c1cc(-c2cccc(F)c2)cs1)N1CC(N2CCN(C(=O)c3nccs3)CC2)C1` [Cpd 1160], at MGL, the 2-AG accumulation, % of vehicle control at 1 µM is 260%. Also, the Kd on mutant MGL (setting [5]) stood at 0.139 µM. Further, in test [1], half-maximal inhibition (IC50) required 45 nM.
As for `COc1ccc(-c2cccc(C(=O)N3CC(N4CCN(C(=O)c5nccs5)CC4)C3)c2)cc1` [Cpd 1091], the 2-AG accumulation, % of vehicle control at 1 µM on MGL is 450%. Besides, the Kd on mutant MGL (setting [2]) amounted to 1.64 µM. In test [1], this compound yielded a half-maximal inhibitory concentration (IC50) of 11 nM.
Consider `Cc1cc(-c2ccc(Cl)c(C(F)(F)F)c2)ccc1C(=O)N1CC(N2CCN(C(=O)c3ccccc3)CC2)C1` [Cpd 256, 1-(1-{[4′-Chloro-3-methyl-3′-(trifluoromethyl)biphenyl-4-yl]carbonyl}azetidin-3-yl)-4-(phenylcarbonyl)piperazine], for which the 2-AG accumulation, % of vehicle control at 1 µM at MGL amounted to 157%. In addition, at mutant MGL (setting [4]), the Kd amounted to 0.0333 µM. The compound also came in with a 50% inhibitory concentration (IC50) in test [1] of 13.4 nM.
For the compound `O=C(c1ccc2c(ccn2-c2cc(F)c(F)c(F)c2)c1)N1CC(N2CCN(C(=O)c3cscn3)CC2)C1` [Cpd 1055], the 2-AG accumulation, % of vehicle control at 1 µM on MGL is 701%. For the same compound, the Kd at mutant MGL (setting [5]) was determined as 0.02 µM. Further, half-maximal inhibition in test [1] (IC50) was put at 5 nM.
Consider `O=C(c1ccc2c(ccn2-c2ccc(OC(F)(F)F)cc2)c1)N1CC(N2CCN(C(=O)c3cscn3)CC2)C1` [Cpd 1370], for which the 2-AG accumulation, % of vehicle control at 1 µM on MGL is 773%. In addition, the Kd on mutant MGL (setting [5]) came to 0.013 µM. The half-inhibitory concentration (IC50) in test [1] is less than 5 nM.
`Cc1c(C(=O)N2CC(N3CCN(C(=O)c4nccs4)CC3)C2)sc2cc(F)ccc12` [Cpd 684]: the 2-AG accumulation, % of vehicle control at 1 µM at MGL stood at 645%. For the same compound, at mutant MGL (setting [4]), the Kd is 0.004 µM. In addition, the IC50 in test [1] worked out at 31 nM.
For the compound `O=C(c1ccc2c(ccn2-c2ccc(C(F)(F)F)cc2)c1)N1CC(N2CCN(C(=O)c3ccns3)CC2)C1` [Cpd 1097, 5-({3-[4-(Isothiazol-5-ylcarbonyl)piperazin-1-yl]azetidin-1-yl}carbonyl)-1-[4-(trifluoromethyl)phenyl]-1H-indole], on MGL, the 2-AG accumulation, % of vehicle control at 1 µM came to 422%. On mutant MGL (setting [2]), the Kd came out at 0.032 µM. In test [1], the IC50 was 12 nM.
Consider `CCCN(CCC)S(=O)(=O)c1ccc(C(=O)N2CC(N3CCN(C(=O)c4nccs4)CC3)C2)cc1` [Cpd 658], for which, on MGL, the 2-AG accumulation, % of vehicle control at 1 µM was 351%. Also, at mutant MGL (setting [3]), the Kd came out at 0.402 µM. The compound also yielded an IC50 in test [1] of 9 nM.
Take `O=C(c1ccccc1)N1CCN(C2CN(C(=O)c3ccc(Cc4ccc(C(F)(F)F)cc4)cc3)C2)CC1` [Cpd 771]: the 2-AG accumulation, % of vehicle control at 1 µM at MGL was found to be 465%. On mutant MGL (setting [2]), the Kd turned out to be 0.05 µM. This compound also came in with an IC50 in test [1] of 7 nM.
The matching figures for `O=C(c1ccc(-c2ccccc2)s1)N1CC(N2CCN(C(=O)c3nccs3)CC2)C1` [Cpd 1122, 1-{1-[(5-Phenylthiophen-2-yl)carbonyl]azetidin-3-yl}-4-(1,3-thiazol-2-ylcarbonyl)piperazine]: 143%, 0.027 µM and 18 nM.
On to `Cn1cc(I)c2ccc(C(=O)N3CC(N4CCN(C(=O)c5nccs5)CC4)C3)cc21` [Cpd 701], for which the 2-AG accumulation, % of vehicle control at 1 µM at MGL worked out at 475%. Moreover, the Kd at mutant MGL (setting [2]) stood at 0.008 µM. The compound further displayed an IC50 in test [1] of 77 nM.
